In the test the target is T1, F508delCFTR (Homo sapiens, UniProt P13569, DEL508-508).
T1 construct: expressed in transfected cells; host or cells: CFBE41o- human lung-derived epithelial cells (CFBE4lo-F508delCFTR-HRP), doxycycline-inducible
Nature of the test: Cell Surface Expression-Horse Radish Peroxidase (CSE-HRP) Assay.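 On Maximum % activity (with co-corrector): co-corrector and positive control are both the same reference corrector at 2 µM.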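 On Maximum % activity (without co-corrector): percent of the 2 µM on-plate positive control corrector response above DMSO.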 It counts as cell-based. As to conditions: CSE-HRP; for Maximum % activity (with co-corrector): with co-corrector (2 μM); for Maximum % activity (with co-corrector) / Emax: maximum at any tested concentration, normalized to on-plate positive control; for Emax: without co-corrector, read-out: Maximum % activity (without co-corrector).

Setting [1] is: test compound without co-corrector, read-out: EC50 (without co-corrector).
Where [2] appears, read: with co-corrector (2 μM of 3-[(2R,4R)-4-({[1-(2,2-difluoro-1,3-benzodioxol-5-yl)cyclopropyl]carbonyl}amino)-7-methoxy-3,4-dihydro-2H-chromen-2-yl]benzoic acid), read-out: EC50 (with co-corrector).

Where two headings read alike, the source gives them in different places.

T1 sequence (P13569 with tags, fused parts or gaps DEL508-508): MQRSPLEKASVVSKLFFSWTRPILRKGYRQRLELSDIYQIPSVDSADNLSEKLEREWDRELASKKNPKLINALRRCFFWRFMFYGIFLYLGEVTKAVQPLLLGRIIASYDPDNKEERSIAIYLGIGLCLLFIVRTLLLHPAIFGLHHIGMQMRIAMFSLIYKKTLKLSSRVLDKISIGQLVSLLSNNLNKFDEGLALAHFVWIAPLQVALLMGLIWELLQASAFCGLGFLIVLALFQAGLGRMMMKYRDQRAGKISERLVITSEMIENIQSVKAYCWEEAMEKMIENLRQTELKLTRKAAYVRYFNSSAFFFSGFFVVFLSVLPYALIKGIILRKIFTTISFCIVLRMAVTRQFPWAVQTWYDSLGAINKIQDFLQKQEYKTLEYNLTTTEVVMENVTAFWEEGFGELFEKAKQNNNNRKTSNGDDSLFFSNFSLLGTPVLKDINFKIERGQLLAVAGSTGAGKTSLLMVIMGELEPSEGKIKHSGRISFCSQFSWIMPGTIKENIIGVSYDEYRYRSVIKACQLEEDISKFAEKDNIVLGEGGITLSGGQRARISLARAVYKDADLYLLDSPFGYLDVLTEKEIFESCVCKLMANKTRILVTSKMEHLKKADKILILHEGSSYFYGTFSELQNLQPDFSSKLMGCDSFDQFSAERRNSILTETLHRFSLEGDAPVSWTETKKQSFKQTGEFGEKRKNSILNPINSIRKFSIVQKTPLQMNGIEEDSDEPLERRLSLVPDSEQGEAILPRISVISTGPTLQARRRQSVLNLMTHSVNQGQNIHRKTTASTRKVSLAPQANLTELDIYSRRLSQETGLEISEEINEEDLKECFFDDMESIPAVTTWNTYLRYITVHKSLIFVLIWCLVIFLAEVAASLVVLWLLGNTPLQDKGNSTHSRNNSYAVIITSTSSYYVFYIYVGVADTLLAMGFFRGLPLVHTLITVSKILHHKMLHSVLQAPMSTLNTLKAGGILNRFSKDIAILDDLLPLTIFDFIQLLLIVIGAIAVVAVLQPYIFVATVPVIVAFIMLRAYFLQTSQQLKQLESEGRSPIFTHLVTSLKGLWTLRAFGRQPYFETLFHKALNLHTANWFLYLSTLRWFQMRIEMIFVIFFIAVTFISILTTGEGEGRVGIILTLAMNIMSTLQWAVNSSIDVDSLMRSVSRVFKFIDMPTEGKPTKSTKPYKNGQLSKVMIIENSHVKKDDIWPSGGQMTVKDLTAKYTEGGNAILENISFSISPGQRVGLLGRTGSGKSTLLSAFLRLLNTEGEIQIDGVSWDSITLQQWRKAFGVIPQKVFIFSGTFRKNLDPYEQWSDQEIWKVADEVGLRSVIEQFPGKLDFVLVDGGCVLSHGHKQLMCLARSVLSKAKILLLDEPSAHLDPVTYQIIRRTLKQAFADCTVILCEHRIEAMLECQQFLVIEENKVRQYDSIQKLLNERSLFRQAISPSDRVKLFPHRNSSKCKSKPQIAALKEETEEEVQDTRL

A word on the EC50: it is the concentration at which the effect is half-maximal. As for `COCc1cc(C)nc(N[C@H]2[C@H](C(C)(C)C)[C@@H](C(=O)O)N(C(=O)C3CCCCC3)[C@H]2c2ccccc2)c1C#N` [II-147], the “Maximum % activity (with co-corrector)” value is “++ (≥150 and <350)”; the Emax was less than 100%. Further, the EC50 under setting [1] lay in the range of 1000 to 10000 nM. Besides, the EC50 under setting [2] lay in the range of 1000 to 10000 nM.
With `CC(C)(C)[C@H]1[C@H](Nc2cc(C(F)(F)F)cc(C(F)(F)F)c2)[C@H](c2ccccc2)N(C(=O)C2CCCCC2)[C@@H]1C(=O)O` [II-148], the “Maximum % activity (with co-corrector)” value is listed as “+++ (≥350)” and the Emax was 100 to 200%. Moreover, the EC50 under setting [1] is less than 1000 nM. Under setting [2], the EC50 is less than 1000 nM.
Regarding `COc1cc(C(F)(F)F)ccc1CN[C@H]1[C@H](C(C)(C)OC)[C@@H](C(=O)O)N(C(=O)C2CCCCC2)[C@H]1c1ccccc1` [II-150], the “Maximum % activity (with co-corrector)” value is on record as “+++ (≥350)” and the Emax was more than 200%. Under setting [1], the EC50 fell in the range of 1000 to 10000 nM. The EC50 under setting [2] is less than 1000 nM.
For `COc1cc(C(F)(F)F)ccc1CN[C@H]1[C@H](C(C)(C)C)[C@@H](C(=O)O)N(C(=O)c2ccccc2)[C@H]1c1ccccc1` [II-152], in that order: “+++ (≥350)”, less than 100%, 1000 to 10000 nM and 1000 to 10000 nM.
For `COc1ccc(C(C)(C)C)cc1CN[C@H]1[C@H](C(C)(C)C)[C@@H](C(=O)O)N(C(=O)C2CCCCS2(=O)=O)[C@H]1c1ccccc1` (stereo partly drawn) [II-153] the same measures were “+++ (≥350)”, more than 200%, 1000 to 10000 nM and 1000 to 10000 nM.
For `COc1ccc(C(C)(C)C)cc1CN[C@H]1[C@H](C(C)(C)C)[C@@H](C(=O)O)N(S(=O)(=O)c2ccn(C)n2)[C@H]1c1ccccc1` [II-154], in that order: “+++ (≥350)”, 100 to 200%, 1000 to 10000 nM and 1000 to 10000 nM.
On to `COc1ccc(C(F)(F)F)cc1CN[C@H]1[C@H](C(C)(C)C)[C@@H](C(=O)O)N(S(=O)(=O)c2ccccc2)[C@H]1c1ccccc1` [II-155], for which the “Maximum % activity (with co-corrector)” value was “++ (≥150 and <350)”; the Emax is less than 100%. Besides, the EC50 under setting [1] is 1000 to 10000 nM. In addition, under setting [2], the EC50 was 1000 to 10000 nM.
In the case of `COc1ccc(C(F)(F)F)cc1CN[C@H]1[C@H](C(C)(C)C)[C@@H](C(=O)O)N(C(=O)C2COc3ccccc3O2)[C@H]1c1ccccc1` (stereo partly drawn) [II-156], the “Maximum % activity (with co-corrector)” value was “++ (≥150 and <350)”; the Emax was less than 100%. Further, the EC50 under setting [1] lay in the range of 1000 to 10000 nM. The concentration for a half-maximal effect (EC50) under setting [2] lay in the range of 1000 to 10000 nM.
Consider `COc1ncc(C(C)C)cc1CN[C@H]1[C@H](C(C)(C)C)[C@@H](C(=O)O)N(C(=O)C2CCCCC2)[C@H]1c1ccccc1` [II-157], for which the “Maximum % activity (with co-corrector)” value is on record as “+++ (≥350)” and the Emax is more than 200%. Moreover, the EC50 under setting [1] lay within 1000 to 10000 nM. Further, the EC50 under setting [2] is less than 1000 nM.
For `COc1ncc(Br)cc1CN[C@H]1[C@H](C(C)(C)C)[C@@H](C(=O)O)N(C(=O)C2CCCCC2)[C@H]1c1ccccc1` [II-158] the same measures were “+++ (≥350)”, 100 to 200%, less than 1000 nM and less than 1000 nM.
As to `COC(=O)[C@H](C)Cc1cnc(OC)c(CN[C@H]2[C@H](C(C)(C)C)[C@@H](C(=O)O)N(C(=O)C3CCCCC3)[C@H]2c2ccccc2)c1` [II-159], the “Maximum % activity (with co-corrector)” value is “++ (≥150 and <350)”; the Emax is less than 100%. Under setting [1], the EC50 lay in the range of 1000 to 10000 nM. Moreover, the 50% effective concentration (EC50) under setting [2] is 1000 to 10000 nM.
Consider `COc1ccc(-c2ccccc2)cc1CN[C@H]1[C@H](C(C)(C)C)[C@@H](C(=O)O)N(C(=O)OC(C)C)[C@H]1c1ccccc1` [II-160], for which the “Maximum % activity (with co-corrector)” value is given as “+++ (≥350)” and the Emax was more than 200%. In addition, under setting [1], the EC50 was in the range of 1000 to 10000 nM. Moreover, under setting [2], the EC50 is less than 1000 nM.
For `COc1cc(C(F)(F)F)ccc1CN[C@H]1[C@H](C(C)(C)C)[C@@H](C(=O)O)N(C(=O)OCC(C)C)[C@H]1c1ccccc1` [II-161], in that order: “+++ (≥350)”, 100 to 200%, 1000 to 10000 nM and less than 1000 nM.
For `COc1ccc(C(C)(C)C)cc1CN[C@H]1[C@H](C(C)(C)C)[C@@H](C(=O)O)N(C(=O)CC2CCOCC2)[C@H]1c1ccccc1` [II-162], in that order: “+++ (≥350)”, 100 to 200%, 1000 to 10000 nM and 1000 to 10000 nM.
Regarding `COc1ccc(C(F)(F)F)cc1CN[C@H]1[C@H](C(C)(C)C)[C@@H](C(=O)O)N(C(=O)C2CCc3ccccc3O2)[C@H]1c1ccccc1` (stereo partly drawn) [II-163], the “Maximum % activity (with co-corrector)” value is given as “+++ (≥350)” and the Emax is less than 100%. Further, the EC50 under setting [1] fell in the range of 1000 to 10000 nM. For the same molecule, the EC50 under setting [2] is less than 1000 nM.
For `COc1ccc(C(C)(C)C)cc1CN[C@H]1[C@H](C(C)(C)C)[C@@H](C(=O)O)N(C(=O)C2OCCc3ccccc32)[C@H]1c1ccccc1` (stereo partly drawn) [II-165] the same measures were “+++ (≥350)”, more than 200%, 1000 to 10000 nM and less than 1000 nM.
As to `CC(C)c1ccccc1CN[C@H]1[C@H](C(C)(C)C)[C@@H](C(=O)O)N(C(=O)C2CCCCC2)[C@H]1c1ccccc1` [II-166], the “Maximum % activity (with co-corrector)” value is “+++ (≥350)” and the Emax was in the range of 100 to 200%. Moreover, under setting [1], the EC50 was less than 1000 nM. Further, the EC50 under setting [2] was less than 1000 nM.
As for `CC(C)(C)[C@H]1[C@H](NC2CCOc3ccc(Cl)cc32)[C@H](c2ccccc2)N(C(=O)C2CCCCC2)[C@@H]1C(=O)O` (stereo partly drawn) [II-167], the “Maximum % activity (with co-corrector)” value was “++ (≥150 and <350)”; the Emax was less than 100%. In addition, under setting [1], the EC50 lay in the range of 1000 to 10000 nM. The EC50 under setting [2] is 1000 to 10000 nM.
As for `COc1ccc(C(C)C)cc1CN[C@H]1[C@H](C(C)(C)C)[C@@H](C(=O)O)N(C(=O)C2CCCCC2)[C@H]1c1ccccc1` [II-168], the “Maximum % activity (with co-corrector)” value is “+++ (≥350)” and the Emax was more than 200%. Moreover, the EC50 under setting [1] lay in the range of 1000 to 10000 nM. The EC50 under setting [2] was less than 1000 nM.
For `COc1ccc(C(C)C)cc1CN[C@H]1[C@H](C(C)(C)C)[C@@H](C(=O)O)N(C(=O)OC(C)C)[C@H]1c1ccccc1` [II-169] the same measures were “+++ (≥350)”, more than 200%, 1000 to 10000 nM and 1000 to 10000 nM.
As to `COc1ncc(Br)cc1CN[C@H]1[C@H](C(C)(C)C)[C@@H](C(=O)O)N(C(=O)OC(C)C)[C@H]1c1ccccc1` [II-170], the “Maximum % activity (with co-corrector)” value is reported as “+++ (≥350)” and the Emax is more than 200%. Under setting [1], the concentration giving a half-maximal response (EC50) lay in the range of 1000 to 10000 nM. Also, under setting [2], the EC50 lay in the range of 1000 to 10000 nM.
Turning to `COc1ccc(Br)cc1CN[C@H]1[C@H](C(C)(C)C)[C@@H](C(=O)O)N(C(=O)OC(C)C)[C@H]1c1ccccc1` [II-171], the “Maximum % activity (with co-corrector)” value is listed as “+++ (≥350)” and the Emax was more than 200%. Further, the EC50 under setting [1] is 1000 to 10000 nM. Also, the EC50 under setting [2] fell in the range of 1000 to 10000 nM.
As for `CCn1c(C)c(CC(=O)N2[C@H](C(=O)O)[C@@H](C(C)(C)C)[C@H](NCc3cc(C(C)(C)C)ccc3OC)[C@@H]2c2ccccc2)c2ccccc21` [II-172], the “Maximum % activity (with co-corrector)” value is listed as “+++ (≥350)” and the Emax was more than 200%. The EC50 under setting [1] lay in the range of 1000 to 10000 nM. Under setting [2], the EC50 is less than 1000 nM.
For `COc1ccc(C(C)(C)C)cc1CN[C@H]1[C@H](C(C)(C)C)[C@@H](C(=O)O)N(C(=O)[C@H]2C[C@H](CCC#N)C[C@H]2C)[C@H]1c1ccccc1` [II-173], in that order: “+++ (≥350)”, more than 200%, 1000 to 10000 nM and 1000 to 10000 nM.
Take `COc1ccc(C(C)(C)C)cc1CN[C@H]1[C@H](C(C)(C)C)[C@@H](C(=O)O)N(C(=O)C2CC(C)CCO2)[C@H]1c1ccccc1` (stereo partly drawn) [II-174]: the “Maximum % activity (with co-corrector)” value is given as “+++ (≥350)” and the Emax was more than 200%. Under setting [1], the EC50 is 1000 to 10000 nM. For the same molecule, under setting [2], the EC50 is 1000 to 10000 nM.
For `COc1ccc(C(C)(C)C)cc1CN[C@H]1[C@H](C(C)(C)C)[C@@H](C(=O)O)N(C(=O)C2CCC(C#N)CC2)[C@H]1c1ccccc1` (stereo partly drawn) [II-175], the “Maximum % activity (with co-corrector)” value is “+++ (≥350)” and the Emax fell in the range of 100 to 200%. Further, the EC50 under setting [1] was 1000 to 10000 nM. Besides, the EC50 under setting [2] is 1000 to 10000 nM.
On to `COc1ccc(C(C)(C)C)cc1CN[C@H]1[C@H](C(C)(C)C)[C@@H](C(=O)O)N(C(=O)CC2CCC(C)(C)OC2)[C@H]1c1ccccc1` (stereo partly drawn) [II-176], for which the “Maximum % activity (with co-corrector)” value is “+++ (≥350)” and the Emax lay in the range of 100 to 200%. Moreover, under setting [1], the EC50 lay within 1000 to 10000 nM. Besides, the EC50 under setting [2] was in the range of 1000 to 10000 nM.
As to `COc1ccc(C(C)(C)C)cc1CN[C@H]1[C@H](C(C)(C)C)[C@@H](C(=O)O)N(C(=O)CC23CC(C2)C3)[C@H]1c1ccccc1` [II-177], the “Maximum % activity (with co-corrector)” value is reported as “+++ (≥350)” and the Emax was more than 200%. Under setting [1], the EC50 lay in the range of 1000 to 10000 nM. Moreover, under setting [2], the EC50 was less than 1000 nM.
Take `COc1ccc(C(C)(C)C)cc1CN[C@H]1[C@H](C(C)(C)C)[C@@H](C(=O)O)N(C(=O)C[C@H]2OCCc3ccccc32)[C@H]1c1ccccc1` [II-178]: the “Maximum % activity (with co-corrector)” value is “+++ (≥350)” and the Emax is more than 200%. In addition, the EC50 under setting [1] lay in the range of 1000 to 10000 nM. Also, the EC50 under setting [2] was less than 1000 nM.
`COc1ccc(C(C)(C)C)cc1CN[C@H]1[C@H](C(C)(C)C)[C@@H](C(=O)O)N(C(=O)CC2CCCOC2)[C@H]1c1ccccc1` (stereo partly drawn) [II-179]: the “Maximum % activity (with co-corrector)” value is given as “+++ (≥350)” and the Emax was more than 200%. For the same molecule, the EC50 under setting [1] lay within 1000 to 10000 nM. Under setting [2], the EC50 lay within 1000 to 10000 nM.

The values above are taken from US20180099931A1 (AbbVie S.à.r.l., priority 2016, published 2018).
